SMILES strings stand for the structures. Where “and” joins values, the source holds several entries; their conditions need not be identical. Equal entries are not always repeated.

Holding throughout (assay): FFA sulfoconjugation assay (N6-MF-A formation with adenosine as scavenger)
Common to all, as to type: biochemical

One test concerns the target T1, mSult2a1 (Mus musculus, UniProt P52843).
T1 construct: made in house; host or cells: Salmonella typhimurium TA1538 (cytosolic fraction, enzyme not purified)
T1 sequence (P52843 1-285): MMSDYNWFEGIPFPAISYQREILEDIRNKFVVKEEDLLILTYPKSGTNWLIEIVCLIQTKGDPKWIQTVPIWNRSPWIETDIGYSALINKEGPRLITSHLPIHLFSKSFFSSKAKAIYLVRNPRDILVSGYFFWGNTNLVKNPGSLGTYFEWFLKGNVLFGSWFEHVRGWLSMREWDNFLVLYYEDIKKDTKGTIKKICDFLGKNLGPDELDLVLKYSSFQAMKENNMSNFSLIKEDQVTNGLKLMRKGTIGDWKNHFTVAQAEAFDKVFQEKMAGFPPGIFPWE
The gist of the method: (§1)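 Quadruplicate incubations of FFA with SULT-expressing TA1538 cytosol and 10 mM adenosine, 20 min at 37 °C. Quantitation of N6-MF-A by UPLC-MS/MS with summed MRM signals against [15N5]N6-MF-A. Values were corrected by subtracting duplicate SULT-deficient cytosol controls.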

A further test concerns the target T2, hSULT1A2 (Homo sapiens, UniProt P50226).
T2 construct: made in house; host or cells: Salmonella typhimurium TA1538 (cytosolic fraction, not purified)
Summed up: as §1

The next test addresses T3, hSULT1E1 (Homo sapiens, UniProt P49888).
T3 construct: made in house; host or cells: Salmonella typhimurium TA1538 (cytosolic fraction, not purified)
T3 sequence (P49888 1-294): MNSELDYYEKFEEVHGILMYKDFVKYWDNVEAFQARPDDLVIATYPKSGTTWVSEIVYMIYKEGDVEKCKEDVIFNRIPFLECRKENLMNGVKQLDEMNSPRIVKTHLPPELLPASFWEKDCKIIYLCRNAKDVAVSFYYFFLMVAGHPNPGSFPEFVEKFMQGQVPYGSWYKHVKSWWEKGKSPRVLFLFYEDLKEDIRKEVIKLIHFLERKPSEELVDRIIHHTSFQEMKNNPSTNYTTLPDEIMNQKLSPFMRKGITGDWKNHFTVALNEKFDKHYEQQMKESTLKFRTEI
The gist of the method:
as §1

For another test, the target named is T4, mSult1a1 (Mus musculus, UniProt P52840).
T4 construct: made in house; host or cells: Salmonella typhimurium TA1538 (cytosolic fraction, enzyme not purified)
Summed up: as §1

A further test addresses T5, hSULT4A1 (Homo sapiens, UniProt Q9BR01).
T5 construct: made in house; host or cells: Salmonella typhimurium TA1538 (cytosolic fraction, not purified)
T5 sequence (Q9BR01 1-284): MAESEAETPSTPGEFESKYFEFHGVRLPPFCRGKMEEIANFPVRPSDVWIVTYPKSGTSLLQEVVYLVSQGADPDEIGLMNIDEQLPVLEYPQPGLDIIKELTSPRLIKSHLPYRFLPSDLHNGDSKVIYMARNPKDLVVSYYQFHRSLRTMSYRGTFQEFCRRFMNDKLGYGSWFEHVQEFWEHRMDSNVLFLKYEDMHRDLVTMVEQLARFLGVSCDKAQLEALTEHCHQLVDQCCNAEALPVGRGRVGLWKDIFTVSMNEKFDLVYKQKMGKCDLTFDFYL
The gist of the method: as §1

The mark [1] stands for this setting: 1 mM FFA, corrected by actual SULT concentration in the cytosolic preparation.

T4 sequence (P52840 whole entry): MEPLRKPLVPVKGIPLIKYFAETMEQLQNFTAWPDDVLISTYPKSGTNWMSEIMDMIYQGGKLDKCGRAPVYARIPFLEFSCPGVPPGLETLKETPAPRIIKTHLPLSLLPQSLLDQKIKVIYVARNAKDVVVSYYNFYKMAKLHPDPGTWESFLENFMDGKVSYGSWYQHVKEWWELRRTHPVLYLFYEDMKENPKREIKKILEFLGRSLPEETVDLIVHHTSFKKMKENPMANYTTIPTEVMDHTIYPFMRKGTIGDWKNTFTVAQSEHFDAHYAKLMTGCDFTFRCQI
T2 sequence (P50226 whole entry): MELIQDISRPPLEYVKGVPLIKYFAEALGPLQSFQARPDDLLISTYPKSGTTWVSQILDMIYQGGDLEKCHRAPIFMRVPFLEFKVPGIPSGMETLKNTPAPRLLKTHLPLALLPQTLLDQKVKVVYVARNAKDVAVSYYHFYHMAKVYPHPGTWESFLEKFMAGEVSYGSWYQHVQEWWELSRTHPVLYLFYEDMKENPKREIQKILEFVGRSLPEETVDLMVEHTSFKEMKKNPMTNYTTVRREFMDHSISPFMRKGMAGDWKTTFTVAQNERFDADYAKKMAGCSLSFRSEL

`OCc1ccco1` [FFA, furfuryl alcohol]: the “Rate of N6-MF-A formation” value on mSult2a1 (0.1 mM FFA) is listed as under 18 fmol N ^6-MF-A/mg/min; at mSult2a1 (1 mM FFA) it was under 20 fmol N ^6-MF-A/mg/min; at mSult2a1 (10 mM FFA) it was 154 ± 2 fmol N ^6-MF-A/mg/min; on hSULT1A2 (0.1 mM FFA), under 18 fmol N ^6-MF-A/mg/min; on hSULT1A2 (1 mM FFA), 34.8 ± 0.5 fmol N ^6-MF-A/mg/min; on hSULT1A2 (10 mM FFA) it was 150 ± 4 fmol N ^6-MF-A/mg/min. Moreover, the “Rate of N6-MF-A formation” value at hSULT1E1 (0.1 mM FFA) was under 18 fmol N ^6-MF-A/mg/min; at hSULT1E1 (1 mM FFA), under 20 fmol N ^6-MF-A/mg/min; at hSULT1E1 (10 mM FFA) it was 47.0 ± 0.9 fmol N ^6-MF-A/mg/min; at mSult1a1 (0.1 mM FFA), 361 ± 4 fmol N ^6-MF-A/mg/min; at mSult1a1 (1 mM FFA), 2,590 ± 20 fmol N ^6-MF-A/mg/min; at mSult1a1 (10 mM FFA), 5,140 ± 60 fmol N ^6-MF-A/mg/min. For the same compound, the “Rate of N6-MF-A formation” value is under 18 fmol N ^6-MF-A/mg/min at hSULT4A1 (0.1 mM FFA), under 20 fmol N ^6-MF-A/mg/min on hSULT4A1 (1 mM FFA) and under 44 fmol N ^6-MF-A/mg/min at hSULT4A1 (10 mM FFA). Besides, the “Rate of N6-MF-A formation (corr.)” value on hSULT1A2 (setting [1]) was 2,480 ± 30 fmol N ^6-MF-A/mg/min; on mSult1a1 (setting [1]), 61,700 fmol N ^6-MF-A/mg/min and 61,700 ± 400 fmol N ^6-MF-A/mg/min. The “ratio of N6-MF-A formation rate, mSult1a1 vs mSult1d1” value on mSult1a1 (1 mM FFA, corrected rates) is on record as “about 14 fold”.

The values are drawn from PMC4710668, “Bioactivation of food genotoxicants 5-hydroxymethylfurfural and furfuryl alcohol by sulfotransferases from human, mouse and rat: a comparative study” (Archives of Toxicology, 2014).
